Molecules are shown by their SMILES.

Data set [1] deals with Echinocloa crus-galli. Kind of data set: Example V 2: Herbicidal Post-Emergence Action. The format is in vivo. To be noted: greenhouse, 320 g of a.i./ha, about 3 weeks. Here is the method:
(§1) Seeds of monocotyledonous and dicotyledonous weed and crop plants are placed into sandy loam in wood fibre pots, covered with soil and cultivated in a greenhouse under good growth conditions. 2-3 weeks after sowing, the test plants are treated at the one-leaf stage. The test compounds, formulated as wettable powders (WP), are then, in various dosages with a water application rate of 600 l/ha (converted), with 0.2% of wetting agent added, sprayed onto the green parts of the plants. After the test plants have been kept in the greenhouse under optimum growth conditions for about 3 weeks, the effect of the preparations is rated visually in comparison to untreated controls (herbicidal effect in percent (%): 100% effect=the plants have died, 0% effect=like control plants).

The test system of data set [2] is Lolium multiflorum. Kind of data set: Example V 2: Herbicidal Post-Emergence Action. Type of data set: in vivo. To be noted: greenhouse, 320 g of a.i./ha, about 3 weeks. Here is the method: as §1
Data set [3] deals with Setaria viridis. Kind of data set: Example V 2: Herbicidal Post-Emergence Action. The format is in vivo. Conditions: greenhouse, 320 g of a.i./ha, about 3 weeks. Here is the method: as §1
For data set [4], the system named is monocotyledonous and dicotyledonous weed and crop plants. Kind of data set: Example V 2: Herbicidal Post-Emergence Action. The format is in vivo. Conditions: greenhouse, 320 g of a.i./ha, about 3 weeks. As to the method: as §1
In data set [5] the test system is Phaedon cochleariae. Kind of data set: Example N: Phaedon Test (spray treatment). Type of data set: in vivo. To be noted: application rate 500 g/ha. Here is the method: [table] To produce a suitable preparation of active compound, 1 part by weight of active compound is mixed with the stated amounts of solvents and emulsifier, and the concentrate is diluted with emulsifier-containing water to the desired concentration. Discs of Chinese cabbage (Brassica pekinensis) are sprayed with a preparation of active compound of the desired concentration and, after drying, populated with larvae of the mustard beetle (Phaedon cochleariae).

Data set [6] deals with Nephotettix cincticeps. Kind of data set: Example F: Nephotettix Test (7:1). Type of data set: in vivo. Conditions: concentration of 1000 ppm. As to the method:
(§2) To produce a suitable preparation of active compound, 1 part by weight of active compound is mixed with the stated amounts of solvent and emulsifier, and the concentrate is diluted with emulsifier-containing water to the desired concentration.
Rice seedlings (Oryza sativa) are treated by being dipped into the preparation of active compound of the desired concentration and are populated with the green rice leaf hopper (Nephotettix cincticeps) while the leaves are still moist.
After the desired period of time, the kill in % is determined. 100% means that all leaf hoppers have been killed; 0% means that none of the leaf hoppers have been killed.

The subject of data set [7] is Plutella xylostella. Kind of data set: Example D: Plutella Test (7:1). The format is in vivo. Conditions: concentration of 1000 ppm. Here is the method:
as §2
Cabbage leaves (Brassica oleracea) are treated by being dipped into the preparation of active compound of the desired concentration and are populated with caterpillars of the diamond back moth (Plutella xylostella) while the leaves are still moist.
After the desired period of time, the kill in % is determined. 100% means that all caterpillars have been killed; 0% means that none of the caterpillars have been killed.

Data set [8] deals with Meloidogyne incognita. Kind of data set: Example K: Meloidogyne Test. Type of data set: in vivo. To be noted: concentration of 20 ppm. Here is the method: (§3) To produce a suitable preparation of active compound, 1 part by weight of active compound is mixed with the stated amounts of solvent and emulsifier, and the concentrate is diluted with water to the desired concentration.
(§4) Vessels are filled with sand, solution of active compound, Meloidogyne incognita egg/larvae suspension and lettuce seeds. The lettuce seeds germinate and the plants develop. On the roots, galls are formed.
(§5) After the desired period of time, the nematicidal activity is determined in % by the formation of galls. 100% means that no galls have been found; 0% means that the number of galls on the treated plants corresponds to that of the untreated control.

The subject of data set [9] is Phaedon cochleariae. Kind of data set: Example M: Phaedon cochleariae Larvae Test. Type of data set: in vivo. To be noted: concentration of 100 ppm. Here is the method: [table] To produce a suitable preparation of active compound, 1 part by weight of active compound is mixed with the stated amounts of solvent and emulsifier, and the concentrate is diluted with emulsifier-containing water to the desired concentration. Cabbage leaves (Brassica oleracea) are treated by being dipped into the preparation of active compound of the desired concentration and are populated with larvae of the mustard beetle (Phaedon cochleariae) while the leaves are still moist.

The test system of data set [10] is Test plants. Kind of data set: Example U: Pre-emergence Test. The format is in vivo. To be noted: greenhouse, 250 g of a.i./ha, after three weeks. Here is the method: To produce a suitable preparation of active compound, 1 part by weight of active compound is mixed with the stated amount of solvent, the stated amount of emulsifier is added and the concentrate is diluted with water to the desired concentration.
Seeds of the test plants are sown in normal soil. After about 24 hours, the soil is sprayed with the preparation of active compound such that the particular amounts of active compound desired are applied per unit area. The concentration of the spray liquor is chosen such that the particular amounts of active compound desired are applied in 1000 l of water/ha.
After three weeks, the degree of damage to the plants is rated in % damage in comparison to the development of the untreated control.
The figures denote: • 0%=no effect (like untreated control) • 100%=total destruction

For data set [11], the system named is Meloidogyne incognita. Kind of data set: Example P: Meloidogyne Test (spray treatment). Type of data set: in vivo. To be noted: concentration of 20 ppm. Here is the method:
To produce a suitable preparation of active compound, 1 part by weight of active compound is mixed with the stated amount of solvent, and the concentrate is diluted with water to the desired concentration.
as §4, §5

For data set [12], the system named is Meloidogyne incognita. Kind of data set: Example H: Meloidogyne Test (7:1). Type of data set: in vivo. To be noted: concentration of 20 ppm. Here is the method: as §3, §4, §5
Data set [13] has as its system cereal crop plants. Kind of data set: Profiling tests, herbicidal post-emergence action with safeners: container trials with cereal in a greenhouse, Mefenpyr 1 day prior to herbicide application. Conditions: in vivo. Here is the method:
Test Description for Profiling Tests
2. Herbicidal Post-Emergence Action
Seeds of monocotyledonous and dicotyledonous weed and crop plants are placed into sandy loam in wood fibre pots or in plastic pots, covered with soil and cultivated in a greenhouse, during the vegetation period also outdoors outside of the greenhouse, under good growth conditions. 2-3 weeks after sowing, the test plants are treated at the one- to three-leaf stage. The test compounds, formulated as wettable powders (WP) or emulsifiable concentrates (EC) are, in various dosages with a water application rate of 300 l/ha (converted), with wetting agent (0.2 to 0.3%) added, sprayed onto the plants and the surface of the soil. […] after the treatment of the test plants, the effect of the preparations is rated visually in comparison to untreated controls (herbicidal effect in percent (%): 100% effect=the plants have died, 0% effect=like control plants). […]

As to `CCOC(=O)OC1=C(c2c(C)cc(C)cc2C)C(=O)NC12CCC1(CC2)OCC(C)O1` (mixture of isomers) [Ex. I-1-c-6], the “herbicidal effect, Echinochloa” value in data set [1] is listed as 80%. In data set [2], the “herbicidal effect, Lolium” value is 90%. For the same compound, the “herbicidal effect, Setaria” value in data set [3] is on record as 90%. The “herbicidal effect, Sinapis” value in [4] was found to be 60%. The same compound came in with an activity in % in [5] of 100%.
As to `Cc1cc(C)c(C2=C(O)C3(CCC4(CC3)OC(C)CC(C)O4)NC2=O)c(C)c1` (mixture of isomers) [Ex. I-1-a-21], the “herbicidal effect, Echinochloa” value in data set [1] is 80%. For the same compound, the “herbicidal effect, Lolium” value in data set [2] came to 80%. For the same compound, the “herbicidal effect, Setaria” value in data set [3] is recorded as 90%. The “herbicidal effect, Sinapis” value in [4] is on record as 70%.
With `Cc1cc(C)c(C2=C(O)C3(CCC4(CC3)OCCO4)NC2=O)c(C)c1` [Ex. I-1-a-2], the “activity (kill in %)” value in data set [6] and in data set [7] was 100% in each case. For the same compound, in data set [1], the “herbicidal effect, Echinochloa” value was determined as 80%. Further, the “herbicidal effect, Lolium” value in data set [2] turned out to be 70%. Further, the “herbicidal effect, Setaria” value in data set [3] is listed as 90%. Further, the “herbicidal effect, Sinapis” value in data set [4] is reported as 60%.
Consider `Cc1cc(C)c(C2=C(O)C3(CCC4(CC3)OCCO4)OC2=O)c(C)c1` [Ex. I-2-a-2], for which the “activity (kill in %)” value in data set [6] amounted to 100%. The “herbicidal effect, Echinochloa” value in data set [1] is on record as 80%. Further, in [2], the “herbicidal effect, Lolium” value turned out to be 90%. The “herbicidal effect, Setaria” value in data set [3] is on record as 100%. In [4], the “herbicidal effect, Amaranthus” value was 60% and the “herbicidal effect, Sinapis” value is reported as 70%. For the same compound, the “activity (kill in %)” value in data set [7] is given as 100%.
As for `Cc1cc(C)c(C2=C(O)C3(CCC4(CC3)OCCCO4)NC2=O)c(C)c1` [Ex. I-1-a-18], the “herbicidal effect, Echinochloa” value in data set [1] worked out at 90%. For the same compound, the “herbicidal effect, Lolium” value in data set [2] is given as 80%. The “herbicidal effect, Setaria” value in [3] is given as 100%. Moreover, the activity in % in data set [5] is 100%.
Take `Cc1cc(Br)cc(C)c1C1=C(O)C2(CCC3(CC2)OCCCO3)NC1=O` [Ex. I-1-a-19]: the “herbicidal effect, Echinochloa” value in data set [1] came to 90%. The “herbicidal effect, Lolium” value in data set [2] is listed as 90%. Also, the “herbicidal effect, Setaria” value in data set [3] amounted to 90%. In [4], the “herbicidal effect, Sinapis” value amounted to 70%.
On to `Cc1cc(Br)cc(C)c1C1=C(O)C2(CCC3(CC2)OCCO3)OC1=O` [Ex. I-2-a-5], for which the “herbicidal effect, Lolium” value in [2] stood at 100%. For the same compound, the “herbicidal effect, Setaria” value in data set [3] is reported as 70%. For the same compound, in data set [4], the “herbicidal effect, Amaranthus” value came to 70% and the “herbicidal effect, Stellaria” value came out at 60%.
With `Cc1ccc(C)c(C2=C(O)C3(CCC4(CC3)OCCCO4)NC2=O)c1` [Ex. I-1-a-12], the “nematicidal activity in % (formation of galls)” value (from here on “nematicidal activity in %”) in [8] is reported as 80%.
Consider `Cc1cc(Cl)cc(C)c1C1=C(O)C2(CCC3(CC2)OCCCO3)OC1=O` [Ex. I-2-a-6], for which the “herbicidal effect, Echinochloa” value in data set [1] is recorded as 60%. In data set [2], the “herbicidal effect, Lolium” value turned out to be 80%. For the same compound, the “herbicidal effect, Setaria” value in data set [3] is 80%. The “herbicidal effect, Sinapis” value in data set [4] was determined as 60%.
Consider `Cc1cc(C)c(C2=C(O)C3(CCC4(CC3)OCC(C)(C)CO4)NC2=O)c(C)c1` [Ex. I-1-a-23], for which, in data set [9], the “activity (kill in %)” value worked out at 100%.
As to `Cc1cc(C)c(C2=C(O)C3(CCC4(CC3)OC(C)C(C)O4)NC2=O)c(C)c1` (mixture of isomers) [Ex. I-1-a-7], the “herbicidal effect, Echinochloa” value in [1] was 60%. Moreover, in [2], the “herbicidal effect, Lolium” value is 80%. Besides, in [3], the “herbicidal effect, Setaria” value worked out at 80%. In data set [4], the “herbicidal effect, Sinapis” value was 60%. The compound also returned an activity in % in data set [5] of 100%.
Regarding `Cc1cc(C)c(C2=C(OC(=O)C(C)(C)C)C3(CCC4(CC3)OCCO4)OC2=O)c(C)c1` [Ex. I-2-b-2], the “activity (kill in %)” value in [6] and in data set [7] was 100% each time.
As to `O=C1NC2(CCC3(CC2)OCCCO3)C(O)=C1c1cc(-c2ccc(Cl)cc2)ccc1Cl` [Ex. I-1-a-15], the “damage, Sugar beet” value in data set [10] (crop plant, sub-table 3) is 0%. Further, in data set [10] (sub-table 3), the “damage, Alopecurus” value is reported as 95%; the “damage, Avena fatua” value worked out at 80%; the “damage, Echinochloa” value came to 99%; the “damage, Setaria” value stood at 70%. The “nematicidal activity in %” value in data set [11] is 100%.
As for `Cc1cc(Cl)cc(C)c1C1=C(O)C2(CCC3(CC2)OCCO3)NC1=O` [Ex. I-1-a-4], in data set [12], the “nematicidal activity in %” value worked out at 95%. Further, in data set [10] (sub-table 1), the “damage, Amaranthus” value worked out at 95%; the “damage, Echinochloa” value stood at 100%; the “damage, Galium” value is 70%; the “damage, Setaria” value worked out at 100%. The “damage, Sinapis” value in data set [10] (sub-table 1) was 70%.
As for `CCOC(=O)OC1=C(c2c(CC)cc(Cl)cc2OC)C(=O)NC12CCC1(CC2)OCCO1` [Ex. I-1-c-25], the “Summer barley observed (%)” value in data set [13] is recorded as 50%.
`Cc1cc(Cl)cc(C)c1C1=C(OC(=O)C(C)C)C2(CCC3(CC2)OCC(CCl)O3)OC1=O` (stereo not drawn) [Ex. I-2-b-3]: in data set [1], the “herbicidal effect, Echinochloa” value was found to be 80%. Further, in [2], the “herbicidal effect, Lolium” value came out at 100%. Moreover, the “herbicidal effect, Setaria” value in data set [3] is recorded as 90%.

For the origin of these results see patent US7897543B2, “Spiroketal-substituted cyclic ketoenols” (Bayer CropScience AG, priority 2005, dated 2011).
